Measurements reported in a compilation of properties of binary mixtures (doi:10.1016/j.molliq.2010.03.018).

Assay: xn = mol fraction of the nth substance listed
Conditions: 101 kPa

COCCOCCO + CCCC[n+]1ccn(C)c1.F[P-](F)(F)(F)(F)F
speed of sound [m/s]
Conditions	x1 = 0.1008	x1 = 0.2217	x1 = 0.3398	x1 = 0.4582	x1 = 0.519	x1 = 0.6876	x1 = 0.8005	x1 = 0.8758	x1 = 0.9136
288.15 K	–	1469	1473	1478.1	1480.6	1484.3	–	–	1474.1
298.15 K	1443.7	–	1448	1452.2	–	1455.5	1451.5	1445.7	1441.7
308.15 K	1420.3	1420.8	1423.5	1426.6	1427.8	–	–	1414.2	1409.4

COCC(C)O (stereo not drawn) + CCCC[n+]1ccn(C)c1.F[P-](F)(F)(F)(F)F
speed of sound [m/s]
Conditions	x1 = 0.0426	x1 = 0.126	x1 = 0.2396	x1 = 0.4116	x1 = 0.5071	x1 = 0.6847	x1 = 0.8536	x1 = 0.9447
288.15 K	1464.5	1458.3	1449.3	–	1420.4	1390.4	–	1322.3
298.15 K	1439.7	1433.7	1424.6	–	1393.6	1360.9	1316.9	1286.9
308.15 K	1416.2	–	1400.6	1381.5	1367.3	1331.8	–	1251.5

CCOCC(C)O (stereo not drawn) + CCCC[n+]1ccn(C)c1.F[P-](F)(F)(F)(F)F
speed of sound [m/s]
Conditions	x1 = 0.0532	x1 = 0.172	x1 = 0.255	x1 = 0.3298	x1 = 0.5031	x1 = 0.6555	x1 = 0.8423	x1 = 0.9	x1 = 0.9474
288.15 K	1462	1449.6	1437.8	–	1390.7	–	–	–	–
298.15 K	1437	1424.7	1412.6	1399.7	1363.1	1325.5	–	1260.4	1247.7
308.15 K	1414.1	1400.1	–	1374.8	1336.2	1296	1242.1	1225.4	–
